Structures can show the parent of a compound that is named as a salt. Where two headings read alike, the source gives them in different places.
Assays:
Format in all cases: cell-based
[1] = system: HTT mRNA; assay: Splicing assay (RT-qPCR) of HTT mRNA alternative junction (AJ) and canonical junction (CJ)
In short: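 HTT splice switching read as formation of an alternative-exon junction (AJ) versus the canonical junction (CJ) by one-step RT-qPCR on cell lysates, with GAPDH/GUSB housekeeping normalisation in K562 and PPIA in A673. Compounds: 11-point 3-fold series up to 10 uM, ≤0.25% DMSO, 24 h at 37 °C.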

[2] = system: HTT CJ mRNA; assay: Gene panel canonical junction qPCR splicing assay, HTT; conditions: Table 4, read-out: HTT IC50 (decrease in CJ mRNA levels)
In short: (§1)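 A673 or K562 cells treated with compound; canonical-junction mRNA measured by RT-qPCR with junction-spanning primer/probe sets, normalized to GAPDH, GUSB or PPIA and DMSO (2^−ΔΔCt). IC50 for CJ decrease from 4-parameter logistic fit of percentage response.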

[3] = system: SMN2 CJ mRNA; assay: Gene panel canonical junction qPCR splicing assay, SMN2; conditions: Table 4, read-out: SMN2 IC50 (decrease in CJ mRNA levels)
In short: as §1

[4] = system: Target C CJ mRNA; assay: Gene panel canonical junction qPCR splicing assay, Target C; conditions: Table 4, read-out: Target C IC50 (decrease in CJ mRNA levels)
In short: as §1

[5] = decrease in CJ mRNA, A673 or K562 cells, 24 hours, read-out: HTT CJ IC50
[6] = increase in AJ mRNA, A673 or K562 cells, 24 hours, read-out: HTT AJ AC50
[7] = 24 h, read-out: HTT AJ AC50 (nM)
[8] = 24 h, read-out: HTT CJ IC50 (nM)

| Compound | IC50 [1, 5] | IC50 [2] | IC50 [3] | IC50 [4] | AC50 [1, 6] | AC50 [1, 7] | IC50 [1, 8] |
| --- | --- | --- | --- | --- | --- | --- | --- |
| Cn1cc2c(O)c(-c3cc4ccc(C5CCNCC5)nc4cn3)cc(Br)c2n1 [Compound 141] | 1000 to 10000 nM | 1000 to 10000 nM | 100 to 1000 nM | > 10000 nM | 1000 to 10000 nM |  |  |
| COc1cc2nn(C)cc2cc1-c1ccc2c(F)c(C3CCNCC3)ccc2n1 [Compound 143, 5-fluoro-2-(6-methoxy-2-methylindazol-5-yl)-6-(piperidin-4-yl)quinoline] | > 10000 nM | > 10000 nM | > 10000 nM | > 10000 nM | > 10000 nM |  |  |
| Cn1cc2cc(-c3ccc4cc(C5CCNCC5)c(F)cc4n3)c(O)cc2n1 [Compound 144, 5-[7-fluoro-6-(piperidin-4-yl)quinolin-2-yl]-2-methylindazol-6-01] | > 10000 nM | > 10000 nM | > 10000 nM | > 10000 nM | > 10000 nM |  |  |
| COc1cc2nn(C)cc2cc1-c1ccc2cc(C3CCNCC3)c(F)cc2n1 [Compound 145, 7-fluoro-2-(6-methoxy-2-methylindazol-5-yl)-6-(piperidin-4-yl)quinoline] | > 10000 nM | > 10000 nM | > 10000 nM | > 10000 nM | > 10000 nM |  |  |
| Cn1cc2cc(O)c(-c3ccc4nc(C5CCNCC5)ccc4n3)cc2n1 [Compound 146, 2-methyl-6-[6-(piperidin-4-yl)-1,5-naphthyridin-2-yl]indazol-5-ol] | 1000 to 10000 nM | 1000 to 10000 nM | 100 to 1000 nM | 1000 to 10000 nM | 1000 to 10000 nM |  |  |
| Cc1nc2cc(O)c(-c3ccc4nc(C5CCNCC5)ccc4n3)cc2s1 [Compound 148] | 1000 to 10000 nM | 1000 to 10000 nM | < 100 nM | 1000 to 10000 nM | 1000 to 10000 nM |  |  |
| Cc1cn2cc(-c3ccc4nc(C5CCNCC5)ccc4n3)c(O)cc2n1 [Compound 149, 2-methyl-6-[6-(piperidin-4-yl)-1,5-naphthyridin-2-yl]imidazo[1,2-a]pyridin-7-ol] | > 10000 nM | > 10000 nM | 100 to 1000 nM | > 10000 nM | > 10000 nM |  |  |
| c1c[nH]c(-c2ccc3nc(C4CCNCC4)ccc3n2)n1 [Compound 152, 2-(1H-imidazol-2-yl)-6-(piperidin-4-yl)-1,5-naphthyridine] | > 10000 nM | > 10000 nM | 1000 to 10000 nM | > 10000 nM | > 10000 nM |  |  |
| Cn1cc2cc(-c3ccc4nc(N5CC[C@H](NC6CCC6)C5)ccc4n3)c(O)cc2n1 [Compound 156, 5-{6-[(3S)-3-(cyclobutylamino)pyrrolidin-1-yl]-1,5-naphthyridin-2-yl}-2-methylindazol-6-ol] |  | < 100 nM | < 100 nM | 100 to 1000 nM |  | < 100 nM | < 100 nM |
| Cn1cc2cc(-c3ccc4nc(OC5CNC5)ccc4n3)c(O)cc2n1 [Compound 159] | 1000 to 10000 nM | 1000 to 10000 nM | 100 to 1000 nM | 1000 to 10000 nM | 1000 to 10000 nM |  |  |
| COc1cc2ccncc2cc1-c1ccc2nc(N3CCC(NC(C)(C)C)C3)ccc2n1 (stereo not drawn) [Compound 161, N-tert-butyl-1-[6-(6-methoxyisoquinolin-7-yl)-1,5-naphthyridin-2-yl]pyrrolidin-3-amine] | > 10000 nM | > 10000 nM | 1000 to 10000 nM | > 10000 nM | > 10000 nM |  |  |
| Cn1cc2cc(-c3ccc4nc(N5CCC56CCNC6)ccc4n3)c(O)cc2n1 (stereo not drawn) [Compound 162] | > 10000 nM | > 10000 nM | 1000 to 10000 nM | > 10000 nM | > 10000 nM |  |  |
| Cn1cc2cc(-c3ccc4nc(N5CCC56CCCNC6)ccc4n3)c(O)cc2n1 (stereo not drawn) [Compound 163] | > 10000 nM | > 10000 nM | 100 to 1000 nM | > 10000 nM | > 10000 nM |  |  |
| Cn1cc2cc(-c3ccc4nc(N5CCC56CCNCC6)ccc4n3)c(O)cc2n1 [Compound 164] | 100 to 1000 nM | 100 to 1000 nM | 100 to 1000 nM | 100 to 1000 nM | 100 to 1000 nM |  |  |
| Cn1cc2cc(-c3ccc4nc(N5CC(NC(C)(C)C)C5)ccc4n3)c(O)cc2n1 [Compound 165] | 1000 to 10000 nM | 1000 to 10000 nM | 1000 to 10000 nM | 1000 to 10000 nM | 1000 to 10000 nM |  |  |
| CC(C)(C)NC1CCN(c2ccc3nc(-c4cc5cnccc5cc4O)ccc3n2)C1 (stereo not drawn) [Compound 166, 7-{6-[3-(tert-butylamino)pyrrolidin-1-yl]-1,5-naphthyridin-2-yl}isoquinolin-6-ol] | > 10000 nM | > 10000 nM | > 10000 nM | > 10000 nM | > 10000 nM |  |  |
| Cn1cnc2cc(-c3ccc4nc(N5CCC(NC(C)(C)C)C5)ccc4n3)c(O)cc2c1=O (stereo not drawn) [Compound 167, 7-{6-[3-(tert-butylamino)pyrrolidin-1-yl]-1,5-naphthyridin-2-yl}-6-hydroxy-3-methylquinazolin-4-one] | > 10000 nM | > 10000 nM | > 10000 nM | > 10000 nM | > 10000 nM |  |  |
| COc1cc2c(=O)n(C)cnc2cc1-c1ccc2nc(N3CCC(NC(C)(C)C)C3)ccc2n1 (stereo not drawn) [Compound 168, 7-{6-[3-(tert-butylamino)pyrrolidin-1-yl]-1,5-naphthyridin-2-yl}-6-methoxy-3-methylquinazolin-4-one] | > 10000 nM | > 10000 nM | > 10000 nM | > 10000 nM | > 10000 nM |  |  |
| CC(C)N[C@H]1CCN(c2ccc3nc(-c4cc5cn(C)nc5cc4O)ccc3n2)C1 [Compound 171] |  | < 100 nM | < 100 nM | 100 to 1000 nM |  | < 100 nM | < 100 nM |

Now from value to compound, other results behind:

| IC50 [1, 5] | IC50 [2] | IC50 [3] | IC50 [4] | Compound | AC50 [1, 6] | AC50 [1, 7] | IC50 [1, 8] |
| --- | --- | --- | --- | --- | --- | --- | --- |
| 100 to 1000 nM | 100 to 1000 nM | < 100 nM | 1000 to 10000 nM | CCN1CCC(c2ccc3nc(-c4cc5cn(C)nc5cc4O)ccc3n2)CC1 [Compound 138, 5-[6-(1-ethylpiperidin-4-yl)-1,5-naphthyridin-2-yl]-2-methylindazol-6-ol] | 100 to 1000 nM |  |  |
| 100 to 1000 nM | 100 to 1000 nM | < 100 nM | 100 to 1000 nM | CN1CCC(c2ccc3nc(-c4cc5cn(C)nc5cc4O)ccc3n2)CC1 [Compound 142, 2-methyl-5-[6-(1-methylpiperidin-4-yl)-1,5-naphthyridin-2-yl]indazol-6-ol] | 100 to 1000 nM |  |  |
| < 100 nM | < 100 nM | < 100 nM | < 100 nM | Cc1nc2cc(O)c(-c3ccc4nc(C5CCNCC5)ccc4n3)cc2o1 [Compound 147, 2-methyl-6-[6-(piperidin-4-yl)-1,5-naphthyridin-2-yl]-1,3-benzoxazol-5-ol] | < 100 nM |  |  |
| < 100 nM | < 100 nM | < 100 nM | < 100 nM | Cc1cn2nc(-c3ccc4nc(C5CCNCC5)ccc4n3)c(O)c2c(C)n1 [Compound 150, 4,6-dimethyl-2-[6-(piperidin-4-yl)-1,5-naphthyridin-2-yl]pyrazolo[1,5-a]pyrazin-3-01] | < 100 nM |  |  |
| 100 to 1000 nM | 100 to 1000 nM | 100 to 1000 nM | 100 to 1000 nM | Cc1cn2cc(-c3ccc4nc(C5CCNCC5)ccc4n3)c(O)c(C)c2n1 [Compound 151, 2,8-dimethyl-6-(6-(piperidin-4-yl)-1,5-naphthyridin-2-yl)imidazo[1,2-a]pyridin-7-ol hydrochloride] | 100 to 1000 nM |  |  |
| < 100 nM | < 100 nM | < 100 nM | < 100 nM | Cn1cc2cc(-c3ccc4nc(N5CC[C@@H](NC(C)(C)C)C5)ccc4n3)c(O)cc2n1 [Compound 153, 5-{6-[(3R)-3-(tert-butylamino)pyrrolidin-1-yl]-1,5-naphthyridin-2-yl}-2-methylindazol-6-ol] | < 100 nM |  |  |
| < 100 nM | < 100 nM | < 100 nM | < 100 nM | Cn1cc2cc(-c3ccc4nc(N5CC[C@H](NC(C)(C)C)C5)ccc4n3)c(O)cc2n1 [Compound 154, 5-{6-[(3S)-3-(tert-butylamino)pyrrolidin-1-yl]-1,5-naphthyridin-2-yl}-2-methylindazol-6-ol] | < 100 nM |  |  |
| < 100 nM | < 100 nM | < 100 nM | 100 to 1000 nM | Cn1cc2cc(-c3ccc4nc(N5CC[C@@H](NC6CCC6)C5)ccc4n3)c(O)cc2n1 [Compound 157] | < 100 nM |  |  |
| < 100 nM | < 100 nM | < 100 nM | < 100 nM | Cn1cc2cc(-c3ccc4nc(N5CCC(NC6CC6)C5)ccc4n3)c(O)cc2n1 (stereo not drawn) [Compound 158] | < 100 nM |  |  |
| 100 to 1000 nM | 100 to 1000 nM | < 100 nM | 1000 to 10000 nM | Cn1cc2cc(-c3ccc4nc(N5CC[C@]67CCN[C@H]6CC[C@H]57)ccc4n3)c(O)cc2n1 [Compound 160, 5-{6-[(1R,55,85)-4,9-diazatricyclo[6.3.0.0^{1,5}]undecan-4-yl]-1,5-naphthyridin-2-yl}-2-methylindazol-6-ol] | 100 to 1000 nM |  |  |
| < 100 nM | < 100 nM | < 100 nM | 100 to 1000 nM | CN[C@H]1CCN(c2ccc3nc(-c4cc5cn(C)nc5cc4O)ccc3n2)C1 [Compound 170, 2-methyl-5-{6-[(3S)-3-(methylamino)pyrrolidin-1-yl]-1,5-naphthyridin-2-yl}indazol-6-ol] | 100 to 1000 nM |  |  |
